Patent US20180008587A1, “THIOHYDANTOIN ANDROGEN RECEPTOR ANTAGONISTS FOR THE TREATMENT OF CANCER” (Jaressen Pharmaceutica NV, priority 2016, published 2018)
Numbering of substitutions follows the chain as printed. Like-named read-outs stand apart in the source and are kept apart here.

How the values were obtained:
Type in all cases: cell-based
[1] = molecular target: T1, wild-type Androgen Receptor (AR-wt) (Homo sapiens, UniProt P10275); assay: LNCaP-AR-wt AG reporter assay (ARE firefly luciferase, agonist mode); details: for Emax: read-out: LNCaP-AR-wt AG MAX % Stim
T1 construct: expressed in transfected cells; host or cells: LNCaP (LNCaP AR (cs))
T1 sequence (P10275 1-920): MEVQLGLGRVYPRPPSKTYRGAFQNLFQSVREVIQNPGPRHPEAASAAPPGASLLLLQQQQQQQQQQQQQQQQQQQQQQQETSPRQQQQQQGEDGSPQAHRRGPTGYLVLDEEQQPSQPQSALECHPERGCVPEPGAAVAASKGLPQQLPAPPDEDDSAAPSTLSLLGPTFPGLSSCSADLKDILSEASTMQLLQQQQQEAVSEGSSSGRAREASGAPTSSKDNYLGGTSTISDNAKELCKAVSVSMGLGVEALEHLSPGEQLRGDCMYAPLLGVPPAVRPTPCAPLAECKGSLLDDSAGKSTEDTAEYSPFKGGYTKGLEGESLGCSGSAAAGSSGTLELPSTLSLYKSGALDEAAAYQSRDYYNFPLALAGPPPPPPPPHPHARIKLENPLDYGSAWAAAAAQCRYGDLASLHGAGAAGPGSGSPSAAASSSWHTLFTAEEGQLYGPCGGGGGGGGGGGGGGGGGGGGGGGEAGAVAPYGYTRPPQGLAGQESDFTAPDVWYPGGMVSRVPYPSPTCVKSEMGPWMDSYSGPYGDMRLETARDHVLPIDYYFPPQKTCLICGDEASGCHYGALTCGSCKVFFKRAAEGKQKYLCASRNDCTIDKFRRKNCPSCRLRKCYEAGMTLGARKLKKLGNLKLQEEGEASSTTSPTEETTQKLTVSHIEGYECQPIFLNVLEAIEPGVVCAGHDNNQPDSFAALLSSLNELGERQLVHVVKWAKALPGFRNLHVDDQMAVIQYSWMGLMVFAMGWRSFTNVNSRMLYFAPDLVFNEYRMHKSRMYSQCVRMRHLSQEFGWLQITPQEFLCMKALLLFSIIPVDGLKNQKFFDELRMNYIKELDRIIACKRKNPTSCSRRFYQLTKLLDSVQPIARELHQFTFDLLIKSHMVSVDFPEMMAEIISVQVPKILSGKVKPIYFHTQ
Outline: (§1)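 LNCaP cells stably expressing wild-type or F876L AR (puromycin-selected pooled populations) were cultured in charcoal-stripped serum medium. In antagonist mode, agonist challenge was 400 pM for wild-type and 600 pM for F876L.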

[2] = molecular target: T2, F876L mutant Androgen Receptor (AR-F876L) (Homo sapiens, UniProt P10275, F877L); assay: LNCaP-AR-F876L ANT reporter assay (ARE firefly luciferase, antagonist mode); details: for Emax: read-out: LNCaP-AR-F876L ANT MAX % Inh; for IC50: read-out: LNCaP-AR-F876L ANT pIC50 (converted)
T2 construct: expressed in transfected cells; host or cells: LNCaP (LNCaP F876L)
T2 sequence (P10275 1-920 F877L): T1 sequence (P10275 1-920) with F877L
Outline: (§2)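 Puromycin-selected LNCaP pools, grown in charcoal-stripped serum, were incubated 20-24 h at 37 °C with compounds, plus agonist challenge at 400 pM for wild-type and 600 pM for F876L.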

[3] = molecular target: T1, wild-type Androgen Receptor (AR-wt); assay: LNCaP-AR-wt ANT reporter assay (ARE firefly luciferase, antagonist mode); details: for IC50: antagonist mode, 400 pM R-1881 challenge, −Log10(IC50 [Molar]), read-out: LNCaP-AR-wt ANT pIC50 (converted); for Emax: read-out: LNCaP-AR-wt ANT MAX % Inh
Outline: as §2

[4] = molecular target: T2, F876L mutant Androgen Receptor (AR-F876L); assay: LNCaP-AR-F876L AG reporter assay (ARE firefly luciferase, agonist mode); details: for Emax: read-out: LNCaP-AR-F876L AG MAX % Stim
Outline: as §1

[5] = agonist mode, −Log10(EC50 [Molar]), read-out: LNCaP-AR-wt AG pEC50 (converted)
[6] = maximum % stimulation (agonist response) over tested concentration range
[7] = maximum % inhibition of R1881 control response over tested concentration range
[8] = agonist mode, −Log10(EC50 [Molar]), read-out: LNCaP-AR-F876L AG pEC50 (converted)

Row | IC50 [2] | IC50 [3] | EC50 [1, 5] | Emax [1, 6] | Emax [2, 7] | Emax [3, 7] | EC50 [4, 8] | Emax [4, 6] | SMILES | EC50 [1] | Emax [1] | Emax [2] | Emax [3] | EC50 [4] | Emax [4]
1 | 417 nM | 759 nM | > 15.1 µM | 1.9% | 99.1% | 99.5% | > 15.1 µM | 0.6% | N#Cc1ncc(N2C(=O)C3(CCC3)N(c3ccc(C(=O)Nc4ccccc4)c(F)c3)C2=S)cc1C(F)(F)F [Cpd 73, 4-[6-[6-cyano-5-(trifluoromethyl)-3-pyridyl]-5-oxo-7-thioxo-6,8-diazaspiro[3.4]octan-8-yl]-2-fluoro-N-phenyl-benzamide] |  |  |  |  |  | 
2 | 759 nM | 1150 nM | > 15.1 µM | 0.6% | 93.8% | 94.1% | > 15.1 µM | 1% | Cc1cc(N2C(=O)C3(CCC3)N(c3ccc(C(=O)Nc4ccc(Cl)cc4)c(F)c3)C2=S)cnc1C#N [Cpd 74, N-(4-chlorophenyl)-4-[6-(6-cyano-5-methyl-3-pyridyl)-5-oxo-7-thioxo-6,8-diazaspiro[3.4]octan-8-yl]-2-fluoro-benzamide] |  |  |  |  |  | 
3 | 851 nM | 1450 nM | > 15.1 µM | 1.9% | 91.6% | 97.8% | > 15.1 µM | 1% | N#Cc1ncc(N2C(=O)C3(CCC3)N(c3ccc(C(=O)NCc4ccco4)c(F)c3)C2=S)cc1C(F)(F)F [Cpd 76, 4-[6-[6-cyano-5-(trifluoromethyl)-3-pyridyl]-5-oxo-7-thioxo-6,8-diazaspiro[3.4]octan-8-yl]-2-fluoro-N-(2-furylmethyl)benzamide] |  |  |  |  |  | 
4 | 1050 nM | 1320 nM | > 15.1 µM | 0.7% | 95.9% | 96.5% | > 15.1 µM | 1% | Cc1cc(N2C(=O)C3(CCC3)N(c3ccc(C(=O)Nc4cccc(Cl)c4)c(F)c3)C2=S)cnc1C#N [Cpd 78, N-(3-chlorophenyl)-4-[6-(6-cyano-5-methyl-3-pyridyl)-5-oxo-7-thioxo-6,8-diazaspiro[3.4]octan-8-yl]-2-fluoro-benzamide] |  |  |  |  |  | 
5 | 331 nM | 631 nM | > 15.1 µM | 1.6% | 101% | 101% | > 15.1 µM | 0.5% | N#Cc1cccc(N2C(=S)N(c3cnc(C#N)c(C(F)(F)F)c3)C(=O)C23CCC3)c1 [Cpd 79, 5-[8-(3-cyanophenyl)-5-oxo-7-thioxo-6,8-diazaspiro[3.4]octan-6-yl]-3-(trifluoromethyl)pyridine-2-carbonitrile] |  |  |  |  |  | 

Row | SMILES | IC50 [2] | IC50 [3] | EC50 [1, 5] | Emax [1, 6] | Emax [2, 7] | Emax [3, 7] | EC50 [4, 8] | Emax [4, 6] | EC50 [1] | Emax [1] | Emax [2] | Emax [3] | EC50 [4] | Emax [4]
6 | N#Cc1ncc(N2C(=O)C3(CCC3)N(c3ccc(Oc4ccncn4)cc3)C2=S)cc1C(F)(F)F [Cpd 71, 5-[5-oxo-8-(4-pyrimidin-4-yloxyphenyl)-7-thioxo-6,8-diazaspiro[3.4]octan-6-yl]-3-(trifluoromethyl)pyridine-2-carbonitrile] | 251 nM | 214 nM |  |  |  |  |  |  | > 15.1 µM | 0.5% | 97.5% | 98.8% | > 15.1 µM | 0.9%
7 | N#Cc1ncc(N2C(=O)C3(CCC3)N(c3ccc(C(=O)NCCCN4CCOCC4)c(F)c3)C2=S)cc1C(F)(F)F [Cpd 72, 4-[6-[6-cyano-5-(trifluoromethyl)-3-pyridyl]-5-oxo-7-thioxo-6,8-diazaspiro[3.4]octan-8-yl]-2-fluoro-N-(3-morpholinopropyl)benzamide] | 102 nM | 251 nM |  |  |  |  |  |  | > 15.1 µM | 0.3% | 101% | 102% | > 15.1 µM | 0.6%
8 | Cc1ccc(NC(=O)c2ccc(N3C(=S)N(c4cnc(C#N)c(C)c4)C(=O)C34CCC4)cc2F)cn1 [Cpd 75, 4-[6-(6-cyano-5-methyl-3-pyridyl)-5-oxo-7-thioxo-6,8-diazaspiro[3.4]octan-8-yl]-2-fluoro-N-(6-methyl-3-pyridyl)benzamide] | 145 nM | 562 nM |  |  |  |  |  |  | > 15.1 µM | 0.8% | 100% | 101% | > 15.1 µM | 0.8%
